Counter-ions that a name gives are not always drawn.
Target: T1, Human Histamine H3 Receptor (Homo sapiens, UniProt Q9Y5N1)
T1 construct: expressed in transfected cells; host or cells: HEK293T cells, stably transfected; membrane preparation
Assay: Methyl histamine binding in human histamine H3 receptor cell line
Details: membranes of stably transfected HEK293T cells; radioligand 1 nM; Ki from IC50 by Cheng-Prusoff
Procedure: Evaluation of Methyl Histamine Binding in Human Histamine H3 Receptor Cell Line
The affinity of test compounds for the histamine 3 (H3) receptor is evaluated in the following manner. Stably transfected HEK293T cells are grown in DMEM containing 10% heat inactivated FBS and G-418 (500 ug/ml). Cells are scraped from the plate, transferred to centrifuge tubes, washed one time in PBS by centrifugation in a Sorvall RT7 Plus centrifuge (2000 rpm 10 minutes, 4° C.). The resulting pellets are stored at −80° C. until ready for use. Cells are re-suspended in buffer (50 mM Tris pH=7.5) and placed in a Dounce homogenizer, douncing ten times to homogenize cells. The homogenate is spun down by centrifugation (Sorvall RT7 Plus, 1800 rpm 10 minutes, 4° C.). The supernatant is placed in a Corex tube and spun down by centrifugation (Sorvall RC 5c Plus, 17,000 rpm 20 minutes, 4° C.). The pellet is resuspended in buffer (50 mM Tris, pH 7.5). Protein concentration (ug/ul) is determined using the Micro-BCA Protein Determination. The binding assay is set up in a 96 well microtiter plate in a total volume of 250 uL. Non-specific binding is determined in the presence of 10 uM clobenpropit. The final radioligand concentration is 1 nM. The test compound is serially diluted using the Beckman Biomek2000 to a final approximate range of 100 uM to 100 pM. Membranes are suspended in buffer, homogenized in 2 bursts of ten seconds using a Vitris mechanical homogenizer set at power setting 5. Ten μg of membranes are added to each well. Following a one hour incubation at 30° C., the reaction is terminated by the addition of ice cold buffer and rapid filtration with a Packard Filtermate Harvester through a GF/B filter pre-soaked with 1% PEI for one hour. The plate is dried for one hour at 37° C. and 60 μL Microscint Scintillant is added to each well. The CPM per well is measured on a Packard Top Count NXT. Ki values are determined in nM. The Ki is calculated from the IC50 (i.e. the concentration of competing ligand which displaces 50% of the specific binding of the radioligand). CPM values are expressed as % specific binding and plotted vs compound concentration. A curve is fitted using a four-parameter logistic fit and the IC50 value is determined. The Ki is calculated from this using the Cheng-Prusoff equation: […]=IC50/1+(L/Kd) where L=concentration of free radioligand used in the assay, and Kd is the dissociation constant of the radioligand for the receptor. L is determined for each experiment by counting an aliquot of the diluted radioligand (corresponding to that added to each well) and the Kd has previously been determined under identical conditions for this cell line/radioligand.

T1 sequence (Q9Y5N1 whole entry): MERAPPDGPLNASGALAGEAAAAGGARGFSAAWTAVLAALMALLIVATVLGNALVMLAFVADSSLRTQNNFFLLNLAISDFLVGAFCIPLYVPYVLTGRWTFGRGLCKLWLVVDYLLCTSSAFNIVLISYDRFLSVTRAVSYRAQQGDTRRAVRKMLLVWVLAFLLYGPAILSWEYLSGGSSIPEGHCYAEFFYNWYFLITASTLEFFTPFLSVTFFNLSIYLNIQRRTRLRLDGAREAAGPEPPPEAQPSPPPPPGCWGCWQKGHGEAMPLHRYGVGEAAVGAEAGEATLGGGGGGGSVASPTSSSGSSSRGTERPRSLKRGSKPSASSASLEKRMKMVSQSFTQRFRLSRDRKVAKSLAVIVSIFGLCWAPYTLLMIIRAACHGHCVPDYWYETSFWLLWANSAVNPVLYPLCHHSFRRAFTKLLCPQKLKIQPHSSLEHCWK

Row | Compound | Ki [nM]
1 | O=C(NC1CCCC1)c1ccc(Oc2ccc3c(c2)CCN(C2CCN(C4CCC4)CC2)C3=O)cc1 [Example 9, 4-{[2-(1-Cyclobutylpiperidin-4-yl)-1-oxo-1,2,3,4-tetrahydroisoquinolin-6-yl]oxy}-N-cyclopentylbenzamide] | 10.1 to 25
2 | O=C(c1ccc(Oc2ccc3c(c2)CCN([C@@H]2CCN(C4CCC4)C2)C3=O)cc1)N1CCCC1 [Example 35, 2-[(3R)-1-cyclobutylpyrrolidin-3-yl]-6-[4-(pyrrolidin-1-ylcarbonyl)phenoxy]-3,4-dihydroisoquinolin-1(2H)-one] | 10.1 to 25
3 | C[C@H]1CCCN1C(=O)c1ccc(-c2ccc3c(c2)CCN([C@@H]2CCN(C4CCC4)C2)C3=O)c(F)c1 [Example 73, 2-[(3R)-1-cyclobutylpyrrolidin-3-yl]-6-(2-fluoro-4-{[(2S)-2-methylpyrrolidin-1-yl]carbonyl}phenyl)-3,4-dihydroisoquinolin-1(2H)-one] | ≤ 10
4 | O=C(O)c1ccc(Oc2ccc3c(c2)CCN([C@@H]2CCN(C4CCC4)C2)C3=O)cc1 [Example 32, (R)-4-(2-(1-cyclobutylpyrrolidin-3-yl)-1-oxo-1,2,3,4-tetrahydroiso-quinolin-6-yloxy)benzoic acid] | > 100
5 | O=C(NC1CCCC1)c1ccc(-c2ccc3c(c2)CCN([C@@H]2CCN(C4CCC4)C2)C3=O)c(F)c1 [Example 80, 4-{2-[(3R)-1-cyclobutylpyrrolidin-3-yl]-1-oxo-1,2,3,4-tetrahydroisoquinolin-6-yl}-N-cyclopentyl-3-fluorobenzamide] | ≤ 10
6 | CNC(=O)c1ccc(Oc2ccc3c(c2)CCN(C2CCN(C4CCC4)CC2)C3=O)cc1 [Example 4, 4-{[2-(1-Cyclobutylpiperidin-4-yl)-1-oxo-1,2,3,4-tetrahydroisoquinolin-6-yl]oxy}-N-methylbenzamide] | ≤ 10
7 | CNC(=O)c1ccc(Oc2ccc3c(c2)CCN([C@@H]2CCN(C4CCC4)C2)C3=O)cc1 [Example 33, 4-({2-[(3R)-1-cyclobutylpyrrolidin-3-yl]-1-oxo-1,2,3,4-tetrahydroisoquinolin-6-yl}oxy)-N-methylbenzamide] | ≤ 10
8 | CCNC(=O)c1ccc(Oc2ccc3c(c2)CCN(C2CCN(C4CCC4)CC2)C3=O)cc1 [Example 5, 4-{[2-(1-Cyclobutylpiperidin-4-yl)-1-oxo-1,2,3,4-tetrahydroisoquinolin-6-yl]oxy}-N-ethylbenzamide] | ≤ 10
9 | COC(=O)c1ccc(Oc2ccc3c(c2)CCN(C2CCN(C4CCC4)CC2)C3=O)cc1 [Example 1, methyl 4-{[2-(1-Cyclobutylpiperidin-4-yl)-1-oxo-1,2,3,4-tetrahydroisoquinolin-6-yl]oxy}benzoate] | 50.1 to 100
10 | O=C1NCCc2cc(-c3ccc4c(c3)CCN([C@@H]3CCN(C5CCC5)C3)C4=O)ccc21 [Example 89, (R)-2-(1-cyclobutylpyrrolidin-3-yl)-3,3′,4,4′-tetrahydro-6,6′-biisoquinoline-1,1′(2H,2′H)-dione hydrochloride] | ≤ 10
11 | N#Cc1ccc(-c2ccc3c(c2)CN(C2CCN(CC4CCCC4)CC2)C3=O)cc1 [Example 27, 4-{2-[1-(Cyclopentylmethyl)piperidin-4-yl]-1-oxo-2,3-dihydro-1H-isoindol-5-yl}benzonitrile] | 25.1 to 50
12 | CNC(=O)c1ccc(-c2ccc3c(c2)CCN([C@@H]2CCN(C(C)C)C2)C3=O)cc1 [Example 82] | ≤ 10

Now from value to compound:

Row | Ki [nM] | Compound
13 | 10.1 to 25 | O=C(c1ccc(-c2ccc3c(c2)CCN([C@@H]2CCCN(C4CCCC4)C2)C3=O)cc1)N1CCCC1 [Example 71, 2-[(3R)-1-cyclopentylpiperidin-3-yl]-6-[4-(pyrrolidin-1-ylcarbonyl)phenyl]-3,4-dihydroisoquinolin-1(2H)-one]
14 | ≤ 10 | CC(C)N1CC[C@@H](N2CCc3cc(-c4ccc(C(=O)N5CCCC5)cc4F)ccc3C2=O)C1 [Example 84, 6-[2-fluoro-4-(pyrrolidin-1-ylcarbonyl)phenyl]-2-[(3R)-1-isopropylpyrrolidin-3-yl]-3,4-dihydroisoquinolin-1(2H)-one]
15 | ≤ 10 | CNC(=O)c1ccc(COc2ccc3c(c2)CCN(C2CCN(C4CCC4)CC2)C3=O)cc1 [Example 16, 4-({[2-(1-Cyclobutylpiperidin-4-yl)-1-oxo-1,2,3,4-tetrahydroisoquinolin-6-yl]oxy}methyl)-N-methylbenzamide]
16 | 25.1 to 50 | N#Cc1ccc(-c2ccc3c(c2)CN(C2CCN(C4CCC4)CC2)C3=O)cc1 [Example 28, 4-[2-(1-Cyclobutylpiperidin-4-yl)-1-oxo-2,3-dihydro-1H-isoindol-5-yl]benzonitrile]
17 | ≤ 10 | C[C@@H]1CCCN1C(=O)c1ccc(-c2ccc3c(c2)CCN([C@@H]2CCN(C4CCC4)C2)C3=O)c(F)c1 [Example 76, 2-[(3R)-1-cyclobutylpyrrolidin-3-yl]-6-(2-fluoro-4-{[(2R)-2-methylpyrrolidin-1-yl]carbonyl}phenyl)-3,4-dihydroisoquinolin-1(2H)-one]
18 | 25.1 to 50 | CCN(CC)C(=O)c1ccc(Oc2ccc3c(c2)CCN(C2CCN(C4CCC4)CC2)C3=O)cc1 [Example 11, 4-{[2-(1-Cyclobutylpiperidin-4-yl)-1-oxo-1,2,3,4-tetrahydroisoquinolin-6-yl]oxy}-N,N-diethylbenzamide]
19 | ≤ 10 | O=C(NC1CCC1)c1ccc(-c2ccc3c(c2)CCN([C@@H]2CCN(C4CCC4)C2)C3=O)c(F)c1 [Example 74, N-cyclobutyl-4-{2-[(3R)-1-cyclobutylpyrrolidin-3-yl]-1-oxo-1,2,3,4-tetrahydroisoquinolin-6-yl}-3-fluorobenzamide]
20 | ≤ 10 | CCNC(=O)c1ccc(-c2ccc3c(c2)CCN([C@@H]2CCN(C(C)C)C2)C3=O)cc1 [Example 83, N-ethyl-4-{2-[(3R)-1-isopropylpyrrolidin-3-yl]-1-oxo-1,2,3,4-tetrahydroisoquinolin-6-yl}benzamide]
21 | ≤ 10 | CNC(=O)c1ccc(-c2ccc3c(c2)CCN([C@@H]2CCN(C4CCC4)C2)C3=O)cc1 [Example 44, 4-{2-[(3R)-1-cyclobutylpyrrolidin-3-yl]-1-oxo-1,2,3,4-tetrahydroisoquinolin-6-yl}-N-methylbenzamide]
22 | ≤ 10 | O=C(c1ccc(-c2ccc3c(c2)CCN([C@@H]2CCN(C4CCC4)C2)C3=O)c(F)c1)N1CCCC1 [Example 79, 2-[(3R)-1-cyclobutylpyrrolidin-3-yl]-6-[2-fluoro-4-(pyrrolidin-1-ylcarbonyl)phenyl]-3,4-dihydroisoquinolin-1(2H)-one]
23 | ≤ 10 | CNC(=O)c1ccc(-c2ccc3c(c2)CCN(C2CCN(C4CCC4)C2)C3=O)cc1 (stereo in doubt) [Example 90, (R)-4-(2-(1-cyclobutylpyrrolidin-3-yl)-1-oxo-1,2,3,4-tetrahydro-isoquinolin-6-yl)-N-methylbenzamide hydrochloride]
24 | ≤ 10 | CNC(=O)c1ccc(-c2ccc3c(c2)CCN([C@@H]2CCN(C(C)C)C2)C3=O)c(F)c1 [Example 85, 3-fluoro-4-{2-[(3R)-1-isopropylpyrrolidin-3-yl]-1-oxo-1,2,3,4-tetrahydroisoquinolin-6-yl}-N-methylbenzamide]
25 | 50.1 to 100 | CN1CC[C@@H](N2CCc3cc(-c4ccc(C(=O)N5CCCC5)cc4)ccc3C2=O)C1 [Example 55, 2-[(3R)-1-methylpyrrolidin-3-yl]-6-[4-(pyrrolidin-1-ylcarbonyl)phenyl]-3,4-dihydroisoquinolin-1(2H)-one]
26 | 10.1 to 25 | CC(C)NC(=O)c1ccc(Oc2ccc3c(c2)CCN(C2CCN(C4CCC4)CC2)C3=O)cc1 [Example 6, 4-{[2-(1-Cyclobutylpiperidin-4-yl)-1-oxo-1,2,3,4-tetrahydroisoquinolin-6-yl]oxy}-N-isopropylbenzamide]
27 | ≤ 10 | CCNC(=O)c1ccc(-c2ccc3c(c2)CCN([C@@H]2CCN(C4CCCC4)C2)C3=O)cc1 [Example 42, 4-{2-[(3R)-1-cyclopentylpyrrolidin-3-yl]-1-oxo-1,2,3,4-tetrahydroisoquinolin-6-yl}-N-ethylbenzamide]
28 | ≤ 10 | O=C(c1ccc(-c2ccc3c(c2)CCN(C2CCN(C4CCCC4)CC2)C3=O)cc1)N1CCCC1 [Example 66, 2-(1-cyclopentylpiperidin-4-yl)-6-[4-(pyrrolidin-1-ylcarbonyl)phenyl]-3,4-dihydroisoquinolin-1(2H)-one]
29 | ≤ 10 | O=C(NC1CCC1)c1ccc(COc2ccc3c(c2)CCN(C2CCN(C4CCC4)CC2)C3=O)cc1 [Example 19, N-Cyclobutyl-4-({[2-(1-cyclobutylpiperidin-4-yl)-1-oxo-1,2,3,4-tetrahydroisoquinolin-6-yl]oxy}methyl)benzamide]

— patent US20090069370A1, “AZACYCLYLISOQUINOLINONE AND ISOINDOLINONE DERIVATIVES AS HISTAMINE-3 ANTAGONISTS” (Wyeth, priority 2007, published 2009)
